Assay: xn = mol fraction of the nth substance listed, in the solute-free solvent

S=c1[nH]ncs1 + CC(C)=O + O
solubility (g/100 g solution)
Settings | 278.15 K | 283.15 K | 288.15 K | 293.15 K | 298.15 K | 303.15 K | 308.15 K | 313.15 K | 318.15 K | 323.15 K
x2 = 0.1 | 1.78 | 2.36 | 2.99 | 3.78 | 4.76 | 6 | 7.45 | 9.31 | 11.5 | 14.2
x2 = 0.2 | 6.07 | 7.41 | 8.84 | 10.6 | 12.5 | 14.8 | 17.3 | 20.2 | 23.6 | 27.1
x2 = 0.3 | 11.4 | 13.3 | 15.3 | 17.4 | 19.6 | 22.2 | 24.9 | 28.1 | 30.9 | 34.4
x2 = 0.4 | 15.7 | 17.9 | 20.2 | 22.5 | 24.8 | 27.1 | 29.6 | 32.5 | 35.3 | 38.5
x2 = 0.5 | 19.8 | 21.7 | 23.7 | 25.6 | 27.8 | 30.3 | 32.6 | 34.8 | 37.3 | 40.1
x2 = 0.6 | 22 | 23.6 | 25.6 | 27.3 | 29.3 | 31.4 | 33.2 | 35.3 | 37.6 | 39.8
x2 = 0.7 | 22.6 | 24.3 | 26.2 | 27.7 | 29.5 | 31.4 | 33.2 | 35 | 37.1 | 39.3
x2 = 0.8 | 23.1 | 24.5 | 25.9 | 27.4 | 29.1 | 30.8 | 32.5 | 34 | 35.7 | 37.4
x2 = 0.9 | 21.4 | 22.6 | 24.2 | 25.6 | 27.2 | 28.6 | 30.4 | 32.1 | 33.7 | 35.3

CCC(C)n1ncn(-c2ccc(N3CCN(c4ccc(OCC5COC(Cn6cncn6)(c6ccc(Cl)cc6Cl)O5)cc4)CC3)cc2)c1=O (stereo unspecified) + ClC(Cl)Cl + CCCO
solubility (g/100 g solution)
Settings | x2 = 0.05356 | x2 = 0.113 | x2 = 0.1792 | x2 = 0.2535 | x2 = 0.3375 | x2 = 0.4331 | x2 = 0.5431 | x2 = 0.6708 | x2 = 0.8209
288.15 K | 0.0558 | 0.128 | 0.28 | 0.831 | 3.16 | 6.95 | 12.2 | 17.6 | 24.2
293.15 K | 0.0691 | 0.153 | 0.347 | 1.04 | 3.51 | 7.71 | 13.2 | 18.8 | 25.1
298.15 K | 0.0837 | 0.183 | 0.426 | 1.28 | 3.9 | 8.57 | 14.2 | 19.9 | 26.1
303.15 K | 0.102 | 0.216 | 0.523 | 1.57 | 4.29 | 9.48 | 15.3 | 21.1 | 26.9
308.15 K | 0.122 | 0.255 | 0.63 | 1.89 | 4.73 | 10.4 | 16.3 | 22.3 | 27.8

CC(N)C(=O)O (stereo unspecified) + O + CC(C)=O
solubility (g/100 g solution)
Settings | x2 = 0.1 | x2 = 0.2 | x2 = 0.3 | x2 = 0.4 | x2 = 0.5 | x2 = 0.6 | x2 = 0.7 | x2 = 0.8 | x2 = 0.9
283.15 K | 0.0237 | 0.0301 | 0.047 | 0.0557 | 0.0712 | 0.135 | 0.382 | 1.03 | 3.44
293.15 K | 0.0407 | 0.0463 | 0.0511 | 0.0648 | 0.0791 | 0.17 | 0.457 | 1.34 | 4.17
303.15 K | 0.047 | 0.053 | 0.0603 | 0.0794 | 0.0969 | 0.22 | 0.611 | 1.73 | 5.02
313.15 K | 0.0547 | 0.0607 | 0.0696 | 0.0949 | 0.128 | 0.309 | 0.794 | 2.22 | 6.57
323.15 K | 0.0629 | 0.0786 | 0.0878 | 0.138 | 0.193 | 0.484 | 1.14 | 3.18 | 8.13

Cc1c(Br)cccc1C(=O)O + CN(C)C=O + O
solubility (g/100 g solution)
Settings | x2 = 0.039 | x2 = 0.091 | x2 = 0.16 | x2 = 0.259 | x2 = 0.411 | x2 = 0.677
278.15 K | 5.54 | 9.19 | 12.7 | 16.1 | 19.4 | 22.9
283.15 K | 8.07 | 11.1 | 15.1 | 18.9 | 22.7 | 26.7
288.15 K | 6.03 | 11.5 | 16.6 | 21.4 | 26 | 30.7
293.15 K | 9.6 | 15.3 | 20.6 | 25.5 | 30.3 | 35.3
298.15 K | 11.6 | 18.1 | 23.9 | 29.3 | 34.6 | 40.1
303.15 K | 13.8 | 21 | 27.5 | 33.4 | 39.2 | 45.3
308.15 K | 16 | 24.1 | 31.1 | 37.6 | 43.8 | 50.5
313.15 K | 18.6 | 27.5 | 35.2 | 42.1 | 48.7 | 55.9
318.15 K | 21.6 | 31.2 | 39.4 | 46.6 | 53.5 | 61.2
323.15 K | 24.4 | 35 | 43.7 | 51.3 | 58.6 | 66.8
328.15 K | 27.9 | 39 | 48.1 | 55.9 | 63.4 | 72

Source: the CheMixHub drug solubility set
